Consider six compounds from ChEMBL document CHEMBL5150006, “Inhibition of Histone Deacetylase 6 (HDAC6) as a therapeutic strategy for Alzheimer's disease: A review (2010-2020)” (Eur J Med Chem, 2021).

The structures appear in SMILES notation.

Data set [1] can be described thus: Half life in mouse plasma measured for 5 to 60 mins by HPLC/MS/MS analysis. To be noted: time 5-60 min. It is filed as ADME, cell-free.
The nature of another data set: in vivo. Conditions: mouse, brain and plasma.
Data set [2] has as its target Glutamate [NMDA] receptor. Nature of the data set: Binding affinity to NMDAR (unknown origin) assessed as inhibition constant by [3H]MK-801 binding assay. The class given is protein-complex assay, Homo sapiens.
Data set [3] addresses T1, Protein deacetylase HDAC6 (Homo sapiens, UniProt Q9UBN7).
T1 sequence (Q9UBN7 whole entry): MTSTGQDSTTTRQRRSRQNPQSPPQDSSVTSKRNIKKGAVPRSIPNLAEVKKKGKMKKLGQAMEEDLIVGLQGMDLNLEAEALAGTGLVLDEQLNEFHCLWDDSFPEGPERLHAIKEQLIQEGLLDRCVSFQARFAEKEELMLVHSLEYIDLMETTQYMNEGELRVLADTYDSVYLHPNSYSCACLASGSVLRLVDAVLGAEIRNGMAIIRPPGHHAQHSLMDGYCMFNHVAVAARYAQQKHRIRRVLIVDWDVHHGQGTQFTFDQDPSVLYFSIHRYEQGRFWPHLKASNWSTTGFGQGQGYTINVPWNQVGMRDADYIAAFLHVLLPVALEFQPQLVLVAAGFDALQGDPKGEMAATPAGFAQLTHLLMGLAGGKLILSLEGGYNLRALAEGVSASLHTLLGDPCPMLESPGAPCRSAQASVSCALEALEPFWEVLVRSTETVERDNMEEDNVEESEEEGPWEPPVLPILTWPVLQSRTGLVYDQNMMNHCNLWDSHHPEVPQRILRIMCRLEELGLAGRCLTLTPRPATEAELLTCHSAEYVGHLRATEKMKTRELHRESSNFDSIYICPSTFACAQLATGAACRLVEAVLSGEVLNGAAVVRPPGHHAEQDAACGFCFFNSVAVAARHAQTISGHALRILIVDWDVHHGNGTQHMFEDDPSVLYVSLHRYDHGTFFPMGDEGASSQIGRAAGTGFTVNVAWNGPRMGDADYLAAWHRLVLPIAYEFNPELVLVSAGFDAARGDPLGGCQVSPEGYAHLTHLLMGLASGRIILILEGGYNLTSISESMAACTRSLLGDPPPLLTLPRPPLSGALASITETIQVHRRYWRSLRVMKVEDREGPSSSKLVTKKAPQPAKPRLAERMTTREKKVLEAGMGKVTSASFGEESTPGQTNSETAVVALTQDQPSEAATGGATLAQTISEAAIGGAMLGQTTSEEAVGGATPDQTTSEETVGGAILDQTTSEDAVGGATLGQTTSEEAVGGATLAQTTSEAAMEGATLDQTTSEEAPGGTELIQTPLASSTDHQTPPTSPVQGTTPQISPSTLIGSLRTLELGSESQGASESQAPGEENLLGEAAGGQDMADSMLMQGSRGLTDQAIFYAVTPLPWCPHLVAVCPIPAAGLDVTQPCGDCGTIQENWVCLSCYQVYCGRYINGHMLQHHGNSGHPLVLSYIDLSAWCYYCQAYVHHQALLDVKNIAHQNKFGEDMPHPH
Nature of the data set: Inhibition of HDAC6 in human HeLa cells measured after 2 hrs by Western blot analysis. The class given is cell-based.

Data set [4] addresses T1, Protein deacetylase HDAC6. The data set can be described thus: Inhibition of HDAC6 (unknown origin) by microtiter plate reader analysis.
The target in data set [5] is T1, Protein deacetylase HDAC6. Nature of the data set: Inhibition of HDAC6 in human SH-SY5Y cells measured after 2 hrs by Western blot analysis. The class given is cell-based. For orientation: Immunoblotting shows a protein as a band on a membrane.
Data set [6] deals with High affinity cGMP-specific 3',5'-cyclic phosphodiesterase 9A (Homo sapiens, UniProt O76083). Nature of the data set: Inhibition of PDE9 in human SH-SY5Y cells measured after 2 hrs by Western blot analysis. The class given is cell-based.
Chain of High affinity cGMP-specific 3',5'-cyclic phosphodiesterase 9A (O76083 whole entry): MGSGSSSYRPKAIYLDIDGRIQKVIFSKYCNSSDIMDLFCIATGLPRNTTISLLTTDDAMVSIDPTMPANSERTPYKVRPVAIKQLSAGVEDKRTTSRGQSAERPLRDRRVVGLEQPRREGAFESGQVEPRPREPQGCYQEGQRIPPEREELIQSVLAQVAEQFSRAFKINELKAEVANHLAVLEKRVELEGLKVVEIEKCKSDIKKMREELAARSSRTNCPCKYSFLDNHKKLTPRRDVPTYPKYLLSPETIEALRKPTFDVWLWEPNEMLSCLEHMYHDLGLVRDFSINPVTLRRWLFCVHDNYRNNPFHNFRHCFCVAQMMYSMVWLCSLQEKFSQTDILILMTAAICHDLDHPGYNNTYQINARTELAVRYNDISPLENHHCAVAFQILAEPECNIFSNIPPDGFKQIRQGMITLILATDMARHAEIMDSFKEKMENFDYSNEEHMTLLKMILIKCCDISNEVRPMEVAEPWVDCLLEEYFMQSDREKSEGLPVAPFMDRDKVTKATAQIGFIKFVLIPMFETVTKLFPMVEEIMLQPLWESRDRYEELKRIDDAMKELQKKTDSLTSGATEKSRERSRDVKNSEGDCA

For `O=C(NO)c1cnc(NC2(c3ccccc3)CC2)nc1`, the half-life (usually the time needed for the level to fall by half in the phase considered) in data set [1] is 12 min.
Take `O=C(NO)c1cnc(NC2(c3cccc(F)c3)CCCCC2)nc1`: the half-life in data set [1] is 30 min. In addition, in “in vivo”, the Kp (usually tissue or fluid exposure divided by exposure in the circulation) turned out to be 1.26.
In the case of `CC12CC3CC(C)(C1)CC(NC(=O)/C=C/c1ccc(C(=O)NO)cc1)(C3)C2`, the Ki (in general, the dissociation constant of the complex between target and ligand, obtained from inhibition or displacement) in data set [2] worked out at 590 nM. Also, in data set [3], the 50% inhibitory concentration (IC50) – broadly, the concentration needed to halve the response being measured – came out at 180 nM.
As to `CN1CCc2c(c3ccccc3n2Cc2ccc(C(=O)NO)cc2)C1` [TUBASTATIN A], the concentration ratio (Kp) in the data set “in vivo” turned out to be 1.22.
The compound `CCN(CC)c1ccc(C(=O)NCCCCCCC(=O)NO)cc1` displayed a 50% inhibitory concentration (IC50) in data set [4] of 0.0095 nM.
As for `C[C@@H]1CN(Cc2ccc(C(=O)NO)cc2)C[C@H]1c1nc2c(cnn2C2CCCC2)c(=O)[nH]1`, the IC50 in data set [5] turned out to be 107 nM; in data set [6], 40 nM.
